Like-named read-outs stand apart in the source and are kept apart here.
Key:
[1] = test system: cGAS activity in Reporter THP1 cell line; experiment: Cellular assay to measure cGAS activity: ISRE-Gaussia luciferase reporter THP1 cells transfected with ISD; assay type: cell-based; conditions: Homo sapiens
Procedure: Cellular assay to measure cGAS activity: Reporter THP1 cell line harboring a gene encoding Gaussia Luciferase under the control of 5 tandem repeats of interferon-stimulated response elements (ISRE) fused to an ISG54 minimal promoter was used to test inhibition of cGAS activity by synthetic compounds in human cells. These cells were plated on 96-well plates at 0.3×10^6/well and incubated with serial dilutions of compounds or DMSO for 5 min, followed by transfection of 2 μg/mL of ISD (Interferon Stimulatory DNA, a 45 bp DNA oligo) or mock transfected using lipofectamine 2000 (Life Technology) method, according to manufacturer's instructions. 16 hours later, 15 μL of the media from each well was transferred to a new plate, 50 μL of solution containing 50 mM Hepes-NaOH, pH 6.5, 50 mM NaCl, 10 mM EDTA, 1 μM of coelenterazine was added to each well and luminescence was measured immediately. Fold increase in luminescence compared to mock transfection was plotted against concentrations of each compound, and IC50 is calculated using Graphpad. To evaluate the specificity of a compound, the same procedure was performed except that cells were transfected with 2 μg/mL poly(I:C) or infected with Sendai Virus (SeV) at 50 Unit/mL, which are known to activate the RIG-I-MAVS pathway. A specific inhibitory compound should inhibit interferon induction by DNA but have minimal effect on poly(I:C) or Sendai virus induced interferon reporter gene expression.
The letter codes for cGAS IC50 include: A (<2 μM); B (2-10 μM); C (>10 μM).

[2] = target: T1, recombinant human cGAS (aa147-522) (Homo sapiens, UniProt Q8N884); experiment: In vitro inhibition assay of cGAS activity (ATP consumption, KinaseGlo Max); assay type: biochemical
T1 construct: recombinant human cGAS (aa147-522); His6-SUMO (cleaved yes); made in house; host or cells: E. coli BL21/pLys
T1 sequence (Q8N884 147-522): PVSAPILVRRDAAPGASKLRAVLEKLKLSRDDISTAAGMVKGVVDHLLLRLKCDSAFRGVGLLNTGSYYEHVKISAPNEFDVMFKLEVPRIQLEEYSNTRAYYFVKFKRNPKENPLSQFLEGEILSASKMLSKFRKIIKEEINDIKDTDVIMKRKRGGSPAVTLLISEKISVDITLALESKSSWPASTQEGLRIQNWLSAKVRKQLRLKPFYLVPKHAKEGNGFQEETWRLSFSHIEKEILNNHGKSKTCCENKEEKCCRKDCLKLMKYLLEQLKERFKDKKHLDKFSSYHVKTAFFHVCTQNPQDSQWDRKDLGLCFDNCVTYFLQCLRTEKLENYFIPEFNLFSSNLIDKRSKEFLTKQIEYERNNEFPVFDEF
Method in brief: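 De-tagged recombinant human cGAS (aa147-522, 1.5 μg/mL) was incubated 20 min at 37 °C with herring testis DNA, 6.6 μM ATP and 0.1 mM GTP in Tris pH 7.5/MgCl2 buffer plus serial compound dilutions. Remaining ATP was read by KinaseGlo Max luminescence, and IC50 was fitted from % ATP consumption versus log concentration.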

[3] = THP-1, untitled table after Table 4 (continuation)
[4] = Table 3, read-out: cGAS Inhibition Results IC50
[5] = THP-1, Table 4, Gaussia luciferase
[6] = Table 2, read-out: cGAS Inhibition Results IC50

IC50 [1, 3] | IC50 [2, 4] | IC50 [1, 5] | IC50 [2, 6] | Structure (SMILES)
2 to 10 µM | < 2 µM | – | – | O=C(O)CCOCC1COCCN(c2cc(-n3ccnc3)c3ccc(Cl)c(Cl)c3n2)C1 (centres unmarked) [I-868]
– | < 2 µM | 2 to 10 µM | – | O=C(O)CCOCC[C@@H]1CC[C@@H](C(=O)O)N1c1cc(-n2ccnc2)c2ccc(Cl)c(Cl)c2n1 [I-714, (2S,5S)-5-(2-(2-carboxyethoxy)ethyl)-1-(7,8-dichloro-4-(1H-imidazol-1-yl)quinolin-2-yl)pyrrolidine-2-carboxylic acid]
– | 2 to 30 µM | < 2 µM | – | CC(C)(C)OC(=O)[C@@H]1[C@@H](O)CCN1c1cc(-n2ccnc2)c2ccc(Cl)c(Cl)c2n1 [I-645, tert-butyl (2S,3S)-1-(7,8-dichloro-4-(1H-imidazol-1-yl)quinolin-2-yl)-3-hydroxypyrrolidine-2-carboxylate]
– | < 2 µM | < 2 µM | – | O=C(O)CCOC[C@@H]1CCCN1c1cc(-c2cn[nH]c2)c2ccc(Cl)c(Cl)c2n1 [I-670]
– | 2 to 30 µM | 2 to 10 µM | – | COC(=O)[C@@H]1[C@H](F)CCN1c1cc(-n2ccnc2)c2ccc(Cl)c(Cl)c2n1 [I-650]
– | < 2 µM | < 2 µM | – | O=C(O)COC[C@@H]1CCCN(c2cc(-n3ccnc3)c3ccc(Cl)c(Cl)c3n2)C1 [I-744]
– | > 30 µM | > 10 µM | – | COC(=O)CCNC[C@@H]1CCCN1c1cc(-n2ccnc2)c2ccc(Cl)c(Cl)c2n1 [I-753, methyl (S)-3-(((1-(7,8-dichloro-4-(1H-imidazol-1-yl)quinolin-2-yl)pyrrolidin-2-yl)methyl)amino)propanoate]
– | 2 to 30 µM | < 2 µM | – | COC(=O)[C@@H]1C[C@@H](C)CN1c1cc(-n2ccnc2)c2ccc(Cl)c(Cl)c2n1 [I-585]
– | 2 to 30 µM | 2 to 10 µM | – | COC(=O)[C@@H]1C[C@@H](F)CN1c1cc(-n2ccnc2)c2ccc(Cl)c(Cl)c2n1 [I-592]
– | 2 to 30 µM | < 2 µM | – | COC(=O)[C@@H]1[C@@H](O)CCN1c1cc(-n2ccnc2)c2ccc(Cl)c(Cl)c2n1 [I-596]
– | < 2 µM | 2 to 10 µM | – | O=C(O)CCO[C@@H]([C@@H]1CCCN1c1cc(-n2ccnc2)c2ccc(Cl)c(Cl)c2n1)C(F)(F)F [I-722]
– | – | 2 to 10 µM | < 2 µM | OC[C@@H]1CCCN1c1cc(-n2ccnc2)c2ccc(Cl)c(Cl)c2n1 [I-139]
< 2 µM | < 2 µM | – | – | COc1cc(Cl)c2nc(N3CCC[C@H]3COCCC(=O)O)cc(-n3ccnc3)c2c1 [I-875]
2 to 10 µM | < 2 µM | – | – | O=C(O)CCCCNc1cc(-n2ccnc2)c2ccc(Cl)c(Cl)c2n1 [I-835]
> 10 µM | 2 to 30 µM | – | – | C[C@@H]1CN(c2cc(-n3ccnc3)c3ccc(Cl)c(Cl)c3n2)[C@H](C(=O)O)[C@H]1O [I-778]
< 2 µM | < 2 µM | – | – | C[C@H]1CCN(c2cc(-n3ccnc3)c3ccc(Cl)c(Cl)c3n2)[C@@H]1COCCC(=O)O [I-792]
– | 2 to 30 µM | 2 to 10 µM | – | COC(=O)[C@@H]1[C@@H](F)CCN1c1cc(-n2ccnc2)c2ccc(Cl)c(Cl)c2n1 [I-649, methyl (2R,3S)-1-(7,8-dichloro-4-(1H-imidazol-1-yl)quinolin-2-yl)-3-fluoropyrrolidine-2-carboxylate]
> 10 µM | < 2 µM | – | – | O=C(O)CCOCc1ccccc1-c1cc(-n2ccnc2)c2ccc(Cl)c(Cl)c2n1 [I-841]
– | 2 to 30 µM | < 2 µM | – | COC(=O)CCC[C@@H]1CCCN1c1cc(-n2ccnc2)c2ccc(Cl)c(Cl)c2n1 [I-681]
> 10 µM | < 2 µM | – | – | O=C(COC[C@@H]1CCCN1c1cc(-n2ccnc2)c2ccc(Cl)c(Cl)c2n1)NO [I-761]
< 2 µM | < 2 µM | – | – | C[C@H]1CN(c2cc(-n3ccnc3)c3ccc(Cl)c(Cl)c3n2)C[C@@H]1COCCC(=O)O [I-814]
– | < 2 µM | < 2 µM | – | O=C(O)CCOC[C@@H]1CCN1c1cc(-n2ccnc2)c2ccc(Cl)c(Cl)c2n1 [I-688]
– | – | 2 to 10 µM | – | O=C(O)C1CC[C@H](c2ccccc2)N1c1cc(-n2ccnc2)c2ccc(Cl)c(Cl)c2n1 (some centres unmarked) [I-487]
– | < 2 µM | – | – | CN(CCN(CC(=O)O)S(C)(=O)=O)c1cc(-n2ccnc2)c2ccc(Cl)c(Cl)c2n1 [I-635, N-(2-((7,8-dichloro-4-(1H-imidazol-1-yl)quinolin-2-yl)(methyl)amino)ethyl)-N-(methylsulfonyl)glycine]
– | 2 to 30 µM | – | – | COC(=O)[C@@H]1C[C@@H](N)CN1c1cc(-n2ccnc2)c2ccc(Cl)c(Cl)c2n1 [I-589]
– | < 2 µM | – | – | CN(CCNC(=O)CCC(=O)O)c1cc(-n2ccnc2)c2ccc(Cl)c(Cl)c2n1 [I-616]
– | – | – | < 2 µM | Oc1cccc(-c2cc(-n3ccnc3)c3ccc(Cl)c(Cl)c3n2)c1 [I-43]
– | < 2 µM | – | – | O=C(C[C@@H]1CCCN1c1cc(-n2ccnc2)c2ccc(Cl)c(Cl)c2n1)N1CCC(c2nnn[nH]2)C1 (some centres unmarked) [I-536]

IC50 [1, 3] | IC50 [2, 4] | IC50 [1, 5] | IC50 [2, 6] | Structure (SMILES)
– | > 30 µM | – | – | Cc1cn(-c2cc(N3CCC[C@H]3COCCC(=O)O)nc3c(Cl)c(Cl)ccc23)cn1 [I-825, (S)-3-((1-(7,8-dichloro-4-(4-methyl-1H-imidazol-1-yl)quinolin-2-yl)pyrrolidin-2-yl)methoxy)propanoic acid]
– | – | – | 2 to 30 µM | O=C(O)c1cccc(Oc2cc(-n3ccnc3)c3ccc(Cl)cc3n2)c1 [I-282]
– | < 2 µM | – | – | COC(=O)CNC(=O)C[C@@H]1CCCN1c1cc(-n2ccnc2)c2ccc(Cl)c(Cl)c2n1 [I-531]
– | – | – | 2 to 30 µM | O=S(=O)(O)CCN(Cc1ccccc1)c1cc(-n2ccnc2)c2ccc(Cl)c(Cl)c2n1 [I-164, 2-(benzyl(7,8-dichloro-4-(1H-imidazol-1-yl)quinolin-2-yl)amino)ethane-1-sulfonic acid]
– | – | – | < 2 µM | CCN1CCN(c2cc(-n3ccnc3)c3ccc(Cl)c(Cl)c3n2)CC1C(=O)O (centres unmarked) [I-80]
– | 2 to 30 µM | – | – | O=C(O)c1cccc(S(=O)(=O)NC[C@@H]2CCCN2c2cc(-n3ccnc3)c3ccc(Cl)c(Cl)c3n2)c1 [I-638]
– | – | – | 2 to 30 µM | NS(=O)(=O)CC1CCCCN1c1cc(-n2ccnc2)c2ccc(Cl)c(Cl)c2n1 (centres unmarked) [I-368]
– | 2 to 30 µM | – | – | COC(=O)C1=CCCN1c1cc(-n2ccnc2)c2ccc(Cl)c(Cl)c2n1 [I-652, methyl 1-(7,8-dichloro-4-(1H-imidazol-1-yl)quinolin-2-yl)-4,5-dihydro-1H-pyrrole-2-carboxylate]
– | 2 to 30 µM | – | – | O=C(O)CCO[C@H]1CCN(c2cc(-n3ccnc3)c3ccc(Cl)c(Cl)c3n2)C1 [I-771]
– | > 30 µM | – | – | COC(=O)c1ccc(S(=O)(=O)NCCN(C)c2cc(-n3ccnc3)c3ccc(Cl)c(Cl)c3n2)cc1 [I-611]
– | > 30 µM | – | – | CCOc1c(Cl)ccc2c(-n3ccnc3)cc(N3CCC[C@H]3COCCC(=O)O)nc12 [I-861]
– | – | – | > 30 µM | Cc1cc(NCCO)c2ccc(Cl)c(Cl)c2n1 [I-304]
– | 2 to 30 µM | – | – | O=C(O)C12CC(CN1c1cc(-n3ccnc3)c3ccc(Cl)c(Cl)c3n1)C2 [I-474]
< 2 µM | – | – | – | O=C(O)CCOC[C@@H]1[C@@H]2CC2CN1c1cc(-n2ccnc2)c2ccc(Cl)c(Cl)c2n1 (stereo in doubt) [I-809]
– | 2 to 30 µM | – | – | O=C(O)CCO[C@H]([C@@H]1CCCN1c1cc(-n2ccnc2)c2ccc(Cl)c(Cl)c2n1)C(F)(F)F [I-721]
– | < 2 µM | – | – | C[C@H]1CCN(c2cc(-n3ccnc3)c3ccc(Cl)c(Cl)c3n2)[C@@H]1C(=O)O [I-482]
– | – | – | > 30 µM | Oc1ccc(-c2cc(-c3ccccc3)nc3cc(Cl)ccc23)cn1 [I-73]
– | – | – | 2 to 30 µM | O=S(=O)(NC1CCCN(c2cc(-n3ccnc3)c3ccc(Cl)cc3n2)C1)c1cccnc1 (centres unmarked) [I-102]
– | – | – | > 30 µM | O=C(O)c1cccc(-c2cc(-n3ccnc3)c3ccc(C(F)(F)F)cc3n2)c1 [I-49, 3-(4-(1H-imidazol-1-yl)-7-(trifluoromethyl)quinolin-2-yl)benzoic acid]
– | – | – | < 2 µM | O=C(CO)NC[C@@H]1CCCN1c1cc(-n2ccnc2)c2ccc(Cl)c(Cl)c2n1 [I-154, (S)—N-((1-(7,8-dichloro-4-(1H-imidazol-1-yl)quinolin-2-yl)pyrrolidin-2-yl)methyl)-2-hydroxyacetamide]
– | – | – | < 2 µM | CN(CCNS(C)(=O)=O)c1cc(-c2cn[nH]c2)c2ccc(Cl)c(Cl)c2n1 [I-235]
– | > 30 µM | – | – | COC(=O)C12CC(CN1c1cc(-n3ccnc3)c3ccc(Cl)c(Cl)c3n1)C2 [I-579]
– | – | – | < 2 µM | OC1(CNc2cc(-n3ccnc3)c3ccc(Cl)c(Cl)c3n2)CC1 [I-245]
– | < 2 µM | – | – | O=C(O)C1CCCCN1C(=O)C[C@@H]1CCCN1c1cc(-n2ccnc2)c2ccc(Cl)c(Cl)c2n1 (some centres unmarked) [I-533]
– | 2 to 30 µM | – | – | CC12CN(c3cc(-n4ccnc4)c4ccc(Cl)c(Cl)c4n3)C(C(=O)O)(C1)C2 [I-475]
– | < 2 µM | – | – | O=C(O)[C@@H]1C[C@H](O)CN1c1cc(-n2ccnc2)c2ccc(Cl)c(Cl)c2n1 [I-455]
– | – | – | 2 to 30 µM | O=C(NCCO)[C@@H]1CCCN1c1cc(-n2ccnc2)c2ccc(Cl)c(Cl)c2n1 [I-452]
